Reference: article PMC8637766, “A mixed chirality α-helix in a stapled bicyclic and a linear antimicrobial peptide revealed by X-ray crystallography” (RSC Chemical Biology, 2021)
In brackets after ≈: the same amount, converted by molar mass. Peptide text beside a SMILES is read from it.

Key:
[1] = tested on: P. aeruginosa PAO1; assay type: cell-based, Pseudomonas aeruginosa
Experimental: (§1) Bicyclic and linear peptides cytotoxicity was assayed against P. aeruginosa PAO1, P. aeruginosa ZEM-1A, P. aeruginosa ZEM9A, K. pneumoniae Oxa-48, E. coli W3110, A. baumannii BAL225, S. aureus Newman, S. aureus COL (clinical isolate of MRSA) , B. Subtilis BR151.
(§2) To determine the Minimal Inhibitory Concentration (MIC), Broth Microdilution method was used . 2 A colony of bacteria from glycerol stock was grown in LB medium overnight at 37 °C and 180 rpm shaking. The compounds were prepared as stock solutions of 8 mg/mL in sterilized milliQ deionized water, added to the first well of 96 -well sterile, polypropylene round bottom microtiter plates (TPP, untreated) and diluted serially by ½. The concentration of the bacteria was quantified by measuring absorbance at 600 nm and diluted to an OD 600 of 0.022 in MH medium. The sample solutions (150 µL) were mixed with 4 µL diluted bacterial suspension with a final inoculation of about 5×10^5 CFU.
For each test, two columns of the plate were kept for sterility control (MH medium only), growth control (MH medium with bacterial inoculum, no compound). The positive control, Polymyxin B (starting with a concentration of 64 µg/mL) in MH medium with bacterial inoculums, was introduced in the two first lines of the plate. The plates were incubated at 37 °C for ~18 hours under static conditions. 15 μL of 3-(4,5-dimethylthiazol-2-yl)-2,5-diphenyltetrazolium bromide (MTT)3 (1 mg/mL in sterilized milliQ deionized water) were added to each well and the plates were incubated for 20-30 minutes at room temperature. The minimal inhibitory concentration (MIC) was defined as the lowest concentration of the dendrimer that inhibits the visible growth of the tested bacteria (yellow) with the unaided eye.

[2] = tested on: B. subtilis BR151; assay type: cell-based, Bacillus subtilis; conditions: BR151, 20 h
Experimental: as §1, §2
For each test, two columns of the plate were kept for sterility control (MH medium only), growth control (MH medium with bacterial inoculum, no compound). The positive control, Polymyxin B (starting with a concentration of 64 µg/mL) in MH medium with bacterial inoculums, was introduced in the two first lines of the plate. […]
conditions. 15 μL of 3-(4,5-dimethylthiazol-2-yl)-2,5-diphenyltetrazolium bromide (MTT)3 (1 mg/mL in sterilized milliQ deionized water) were added to each well and the plates were incubated for 20-30 minutes at room temperature. The minimal inhibitory concentration (MIC) was defined as the lowest concentration of the dendrimer that inhibits the visible growth of the tested bacteria (yellow) with the unaided eye.

[3] = Lipid vesicle leakage assay, 5(6)-carboxyfluorescein release; conditions: for EYPC vesicle leakage / EYPG vesicle leakage: 10 μg mL^−1 compound, leakage at 250 s, 10 mM TRIS, 107 mM NaCl, pH 7.4, 25 °C, carboxyfluorescein fluorescence, Triton X-100 = full release
Experimental: 4 Lipid Vesicle Leakage assays
5(6)-carboxyfluorescein (CF) was purchased from Sigma. Egg Yolk Phosphatidylcholine (EYPC),
Egg Yolk Phosphatidylglycerol (EYPG) and a Mini-Extruder were purchased from Avanti Polar
Lipids. Egg PC or Egg PG thin lipid layers were prepared by evaporating a solution of 100 mg EYPC
or EYPG in 4 mL MeOH/CHCl3 (1:1) on a rotary evaporator at room temperature and then dried in
vacuo overnight. The resulting film was then hydrated with 4 mL CF buffer (50 mM CF, 10 mM
TRIS, 107 mM NaCl, pH 7.4) for 30 min, subjected to freeze-thaw cycles (7×) and extrusion (15×)
through a polycarbonate membrane (pore size 100 nm). Extra vesicular components were removed
by gel filtration (Sephadex G-50) with 10 mM TRIS, 107 mM NaCl, pH 7.4 buffer. Final conditions:
~ 2.5 mM PC or PG; inside: 50 mM CF, 10 mM TRIS, 10 mM NaCl, pH 7.4 buffer; outside: 10 mM
TRIS, 107 mM NaCl, pH 7.4. PC or PG stock solutions (37.5 µL) were diluted to 3000 µL with a
buffer (10 mM TRIS, 107 mM NaCl, pH 7.4) in a thermostated fluorescence cuvette (25 °C) and
gently stirred (final lipid concentration ~31 µM). CF efflux was monitored at λem 517 nm (λex 492
nm) as a function of time after addition of the desired volume of peptide (1 or 20 mg/mL stock in mQ
water) at t = 45 s. The following final concentrations of peptide were monitored: 5, 10, 15, 20, 25 and
200 µg/mL. Finally, 30 µL of 1.2% Triton X -100 was added to the cuvette (0.012% final
concentration) at t = 285 s to reach the maximum intensity. Fluorescence intensities were then
Figure S1: Vesicle leakage experiments using 5(6)-carboxyfluorescein induced by peptides. EYPG and EYPC vesicles
were suspended in buffer (10 mM TRIS, 107 mM NaCl, pH 7.4) and the indicated concentration of the compound was
added after 45 sec. After 285 seconds 30 μL Triton X-100 1.2% was added for full release of fluorescein. […]

Compound	MIC PAO1 [1] [µg/mL]	MIC BR 151 [2] [µg/mL]	other results
Cc1c2cc3cc1CSC[C@H](NC(=O)[C@H](CCCCN)NC(=O)[C@H](CC(C)C)NC(=O)[C@H](CC(C)C)NC(=O)[C@H](CCCCN)NC(=O)[C@H](CCCCN)NC3=O)C(=O)N[C@@H](CC(C)C)C(=O)N[C@@H](CCCCN)C(=O)N[C@H](C(=O)N[C@@H](CC(C)C)C(N)=O)CSC2 [bp3] (HELM PEPTIDE1{K.K.L.L.K.C.L.K.C.L.[am]}|CHEM1{[Cc1c(C[*:2])cc(C(=O)[*:1])cc1C[*:3]]}$PEPTIDE1,CHEM1,1:R1-1:R1|PEPTIDE1,CHEM1,6:R3-1:R2|PEPTIDE1,CHEM1,9:R3-1:R3$$$V2.0)	>64	4 (≈ 3.01 µM)	–
Cc1c2cc3cc1CSC[C@H](NC(=O)[C@H](CCCCN)NC(=O)[C@H](CCCCN)NC(=O)[C@H](CC(C)C)NC(=O)[C@H](CC(C)C)NC(=O)[C@H](CCCCN)NC3=O)C(=O)N[C@@H](CC(C)C)C(=O)N[C@@H](CCCCN)C(=O)N[C@H](C(=O)N[C@@H](CC(C)C)C(N)=O)CSC2 [bp59] (HELM PEPTIDE1{K.L.L.K.K.C.L.K.C.L.[am]}|CHEM1{[Cc1c(C[*:2])cc(C(=O)[*:1])cc1C[*:3]]}$PEPTIDE1,CHEM1,1:R1-1:R1|PEPTIDE1,CHEM1,6:R3-1:R2|PEPTIDE1,CHEM1,9:R3-1:R3$$$V2.0)	–	4 (≈ 3.01 µM)	–
Cc1c2cc3cc1CSC[C@H](NC(=O)[C@H](CC(C)C)NC(=O)[C@H](CCCCN)NC(=O)[C@H](CC(C)C)NC(=O)[C@H](CC(C)C)NC(=O)[C@H](CCCCN)NC3=O)C(=O)N[C@@H](CCCCN)C(=O)N[C@@H](CCCCN)C(=O)N[C@H](C(=O)N[C@@H](CC(C)C)C(N)=O)CSC2 [bp60] (HELM PEPTIDE1{K.L.L.K.L.C.K.K.C.L.[am]}|CHEM1{[Cc1c(C[*:2])cc(C(=O)[*:1])cc1C[*:3]]}$PEPTIDE1,CHEM1,1:R1-1:R1|PEPTIDE1,CHEM1,6:R3-1:R2|PEPTIDE1,CHEM1,9:R3-1:R3$$$V2.0)	–	> 64	–
Cc1c2cc3cc1CSC[C@H](NC(=O)[C@H](CC(C)C)NC(=O)[C@H](CCCCN)NC(=O)[C@H](CCCCN)NC3=O)C(=O)N[C@@H](CCCCN)C(=O)N[C@@H](CC(C)C)C(=O)N[C@H](C(=O)N[C@@H](CCCCN)C(=O)N[C@@H](CC(C)C)C(N)=O)CSC2 [bp61] (HELM PEPTIDE1{K.K.L.C.K.L.C.K.L.[am]}|CHEM1{[Cc1c(C[*:2])cc(C(=O)[*:1])cc1C[*:3]]}$PEPTIDE1,CHEM1,1:R1-1:R1|PEPTIDE1,CHEM1,4:R3-1:R2|PEPTIDE1,CHEM1,7:R3-1:R3$$$V2.0)	–	> 64	–
Cc1c2cc3cc1CSC[C@H](NC(=O)[C@H](CC(C)C)NC(=O)[C@H](CC(C)C)NC(=O)[C@H](CC(C)C)NC(=O)[C@H](CCCCN)NC(=O)[C@H](CCCCN)NC3=O)C(=O)N[C@@H](CCCCN)C(=O)N[C@@H](CC(C)C)C(=O)N[C@H](C(=O)N[C@@H](CCCCN)C(N)=O)CSC2 [bp62] (HELM PEPTIDE1{K.K.L.L.L.C.K.L.C.K.[am]}|CHEM1{[Cc1c(C[*:2])cc(C(=O)[*:1])cc1C[*:3]]}$PEPTIDE1,CHEM1,1:R1-1:R1|PEPTIDE1,CHEM1,6:R3-1:R2|PEPTIDE1,CHEM1,9:R3-1:R3$$$V2.0)	–	32 (≈ 24 µM)	–
Cc1c2cc3cc1CSC[C@H](NC(=O)[C@H](CC(C)C)NC(=O)[C@H](CCCCN)NC(=O)[C@H](CCCCN)NC3=O)C(=O)N[C@@H](CCCCN)C(=O)N[C@@H](CC(C)C)C(=O)N[C@@H](CC(C)C)C(=O)N[C@@H](CCCCN)C(=O)N[C@H](C(=O)N[C@@H](CC(C)C)C(N)=O)CSC2 [bp63] (HELM PEPTIDE1{K.K.L.C.K.L.L.K.C.L.[am]}|CHEM1{[Cc1c(C[*:2])cc(C(=O)[*:1])cc1C[*:3]]}$PEPTIDE1,CHEM1,1:R1-1:R1|PEPTIDE1,CHEM1,4:R3-1:R2|PEPTIDE1,CHEM1,9:R3-1:R3$$$V2.0)	–	4 (≈ 3.01 µM)	–
Cc1c2cc3cc1CSC[C@H](NC(=O)[C@H](CCCCN)NC(=O)[C@H](CC(C)C)NC(=O)[C@H](CC(C)C)NC(=O)[C@H](CCCCN)NC(=O)[C@H](CCCCN)NC3=O)C(=O)N[C@@H](CCCCN)C(=O)N[C@@H](CC(C)C)C(=O)N[C@H](C(=O)N[C@@H](CC(C)C)C(N)=O)CSC2 [bp64] (HELM PEPTIDE1{K.K.L.L.K.C.K.L.C.L.[am]}|CHEM1{[Cc1c(C[*:2])cc(C(=O)[*:1])cc1C[*:3]]}$PEPTIDE1,CHEM1,1:R1-1:R1|PEPTIDE1,CHEM1,6:R3-1:R2|PEPTIDE1,CHEM1,9:R3-1:R3$$$V2.0)	–	16 (≈ 12 µM)	–
Cc1c2cc3cc1CSC[C@H](NC(=O)[C@H](CC(C)C)NC(=O)[C@H](CCCCN)NC(=O)[C@H](CCCCN)NC3=O)C(=O)N[C@@H](CCCCN)C(=O)N[C@@H](CC(C)C)C(=O)N[C@@H](CC(C)C)C(=O)N[C@@H](CCCCN)C(=O)N[C@H](C(N)=O)CSC2 [bp66] (HELM PEPTIDE1{K.K.L.C.K.L.L.K.C.[am]}|CHEM1{[Cc1c(C[*:2])cc(C(=O)[*:1])cc1C[*:3]]}$PEPTIDE1,CHEM1,1:R1-1:R1|PEPTIDE1,CHEM1,4:R3-1:R2|PEPTIDE1,CHEM1,9:R3-1:R3$$$V2.0)	–	> 64	–
Cc1c2cc3cc1CSC[C@H](C(=O)N[C@@H](CC(C)C)C(=O)N[C@H](CC(C)C)C(N)=O)NC(=O)[C@H](CCCCN)NC(=O)[C@@H](CC(C)C)NC(=O)[C@H](CSC2)NC(=O)[C@@H](CCCCN)NC(=O)[C@H](CC(C)C)NC(=O)[C@@H](CC(C)C)NC(=O)[C@H](CCCCN)NC(=O)[C@@H](CCCCN)NC3=O [bp67] (HELM PEPTIDE1{[dK].K.[dL].L.[dK].C.[dL].K.[dC].L.[dL].[am]}|CHEM1{[Cc1c(C[*:2])cc(C(=O)[*:1])cc1C[*:3]]}$PEPTIDE1,CHEM1,1:R1-1:R1|PEPTIDE1,CHEM1,6:R3-1:R2|PEPTIDE1,CHEM1,9:R3-1:R3$$$V2.0)	32 (≈ 22.2 µM)	–	EYPC vesicle leakage [3]: 6%; EYPG vesicle leakage [3]: 48%; Leakage activity on EYPC vesicles, in words ([3]; zwitterionic EYPC vesicles mimicking eukaryotic membranes): very low leakage activity
Cc1c2cc3cc1CSC[C@@H](NC(=O)[C@H](CCCCN)NC(=O)[C@H](CC(C)C)NC(=O)[C@H](CC(C)C)NC(=O)[C@H](CCCCN)NC(=O)[C@H](CCCCN)NC3=O)C(=O)N[C@@H](CC(C)C)C(=O)N[C@@H](CCCCN)C(=O)N[C@@H](C(=O)N[C@@H](CC(C)C)C(=O)N[C@@H](CC(C)C)C(N)=O)CSC2 [bp68] (HELM PEPTIDE1{K.K.L.L.K.[dC].L.K.[dC].L.L.[am]}|CHEM1{[Cc1c(C[*:2])cc(C(=O)[*:1])cc1C[*:3]]}$PEPTIDE1,CHEM1,1:R1-1:R1|PEPTIDE1,CHEM1,6:R3-1:R2|PEPTIDE1,CHEM1,9:R3-1:R3$$$V2.0)	16 (≈ 11.1 µM)	–	EYPC vesicle leakage [3]: 18%; EYPG vesicle leakage [3]: 44%
